Measurements from patent US20230357179A1, “RAF KINASE INHIBITORS AND METHODS OF USE THEREOF” (Deciphera Pharmaceuticals, LLC, priority 2021, published 2023).
pIC50: −log10 of the molar value.

Key:
[1] = test system: A375 cells; assay: A375 cell proliferation assay (1), resazurin, 96-well; format: cell-based; settings: Homo sapiens, A-375, inhibition of cell proliferation
Summary of the method: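 Viability was read by resazurin fluorescence at 540 nm excitation and 600 nm emission, using a 440 μM solution added for 5–6 h at the end of culture. IC50 came from the curve fit.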

[2] = target: T1, C-Raf kinase (Homo sapiens, UniProt P04049, Y340D/Y341D); assay: Biochemical assay for C-Raf.1 (coupled pyruvate kinase/lactate dehydrogenase); settings: read-out: CRAF.1 IC50
T1 construct: Y340D,; GST (N); purchased Sigma
T1 sequence (P04049 307-648 Y340D/Y341D): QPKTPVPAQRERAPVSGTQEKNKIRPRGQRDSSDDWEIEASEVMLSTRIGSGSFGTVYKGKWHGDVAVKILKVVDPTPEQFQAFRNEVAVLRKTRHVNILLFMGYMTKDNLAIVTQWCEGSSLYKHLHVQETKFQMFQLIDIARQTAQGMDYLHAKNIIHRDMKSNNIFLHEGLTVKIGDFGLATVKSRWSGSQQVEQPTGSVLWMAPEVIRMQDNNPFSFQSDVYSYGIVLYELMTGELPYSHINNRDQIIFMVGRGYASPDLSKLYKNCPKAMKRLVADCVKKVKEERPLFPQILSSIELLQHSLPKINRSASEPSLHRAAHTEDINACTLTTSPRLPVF
Summary of the method: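 NADH depletion at 340 nm monitored continuously for 6 h at 30° C, with rates taken over 4–5 h. The coupled pyruvate kinase/lactate dehydrogenase reaction used 1 mM ATP, 30.1 nM MEK substrate and 0.43 nM kinase at pH 7.5. IC50 was fitted sigmoidally from percent inhibition of serially diluted compound.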

[3] = test system: Miapaca-2 cells; assay: MiaPaca-2 cell proliferation assay (1), resazurin, 96-well; format: cell-based; settings: Homo sapiens, MIA PaCa-2, inhibition of cell proliferation
Experimental: MiaPaca-2 Cell Proliferation Assay (1)
Miapaca-2 cells (catalog #CRL-1420) are obtained from the American Type Culture Collect (ATTC, Manassas, VA). Briefly, cells were grown in DMEM supplemented with 10% characterized fetal bovine serum (Invitrogen, Carlsbad, CA), 2.5% New Zealand sourced horse serum and 1% Penicillin/Streptomycin/L-Glutamine at 37° C., 5% CO2, and 95% humidity. Cells are expanded until reaching 70-95% confluency at which point they are subcultured or harvested for assay use. A serial dilution of test compound is dispensed into a 96-well black clear bottom plate in triplicate. Three thousand cells are added per well in 200 μL complete growth medium in the 96-well plate. Plates are incubated for 67-72 hours at 37° C., 5% CO2, and 95% humidity. At the end of the incubation, 40 μL of a 440 μM solution of resazurin (Sigma, St. Louis, MO) in PBS is added to each well of the plate and plates are incubated for an additional 5-6 hours at 37° C., 5% CO2, and 95% humidity. Plates are read on a Synergy2 or equivalent reader (Biotek, Winooski VT) using an excitation of 540 nm and an emission of 600 nm. Data is analyzed using Prism software (GraphPad, San Diego, CA) to calculate IC50 values.

| SMILES | pIC50 [1] | pIC50 [2] | pIC50 [3] |
| --- | --- | --- | --- |
| CNC(=O)c1cc(-c2cnnc(-c3cc(NC(=O)NCCC(C)(C)OC)cnc3C)c2)ccn1 [Example 154] | 5.00 to 6.00 | < 6.00 |  |
| COC[C@@H]1CCN(C(=O)Nc2cc(-c3cc(-c4ccnc(NC(=O)OC)c4)cnn3)c(C)cc2F)C1 [Example 149] | 5.00 to 6.00 | 6.00 to 6.30 |  |
| COC(C)(C)CCNC(=O)Nc1cc(-c2cc(-c3ccnc(NC(=O)C4CC4)c3)cnn2)c(C)cc1F [Example 142] | 5.00 to 6.00 | ≥ 7.00 | 5.00 to 6.00 |
| CCC(C)CCNC(=O)Nc1cnc(C)c(-c2ccnc(-c3ccnc(NC(=O)C4CC4)c3)c2)c1 (centres unmarked) [Example 124] | 5.00 to 6.00 | ≥ 7.00 |  |
| COC(C)(C)CCNC(=O)Nc1cnc(C)c(-c2cc(-c3ccnc(NC(=O)C4CC4)c3)cnn2)c1 [Example 121] | 5.00 to 6.00 | ≥ 7.00 | 5.00 to 6.00 |
| COC(=O)Nc1nccc(-c2cc(OCCO)cc(-c3cc(NC(=O)NCCC4(C)CC4)c(F)cc3C)c2)n1 [Example 122] | 6.00 to 6.30 | ≥ 7.00 | 5.00 to 6.00 |
| COC(=O)Nc1cc(-c2nccc(-c3cc(NC(=O)NCCC(C)(C)F)c(F)cc3C)n2)ccn1 [Example 147] | 5.00 to 6.00 | ≥ 7.00 | 5.00 to 6.00 |
| COC(=O)Nc1cc(-c2nccc(-c3cc(NC(=O)NCCC(C)(C)OC)c(F)cc3C)n2)ccn1 [Example 129] | 5.00 to 6.00 | ≥ 7.00 |  |
| Cc1ncc(NC(=O)NCCC2(C)CC2)cc1-c1ccnc(-c2ccnc(NC(=O)C3(C#N)CC3)c2)c1 [Example 169] | 5.00 to 6.00 | ≥ 7.00 |  |
| CNC(=O)c1cc(-c2cnnc(-c3cc(NC(=O)NCCC(C)(C)OC)c(F)cc3C)c2)ccn1 [Example 123] | 5.00 to 6.00 | 6.00 to 6.30 | 5.00 to 6.00 |
| Cc1cc(F)c(NC(=O)NCCC(C)(C)F)cc1-c1cccc(-c2cc(NC(=O)C3CC3)ncn2)c1 [Example 127] | 5.00 to 6.00 | ≥ 7.00 |  |
| COC[C@H]1CCN(C(=O)Nc2cc(-c3cc(-c4ccnc(NC(=O)OC)c4)cnn3)c(C)cc2F)C1 [Example 148] | 5.00 to 6.00 | 6.00 to 6.30 | 5.00 to 6.00 |
| Cc1cc(F)c(NC(=O)NCCC(C)(C)F)cc1-c1cc(-c2ccnc(NC(=O)C3CC3)c2)cnn1 [Example 139] | 5.00 to 6.00 | ≥ 7.00 | 5.00 to 6.00 |
| Cc1ncc(NC(=O)NCCC2(C)CC2)cc1-c1ccnc(-c2ccnc(NC(=O)C3CC3)c2)c1 [Example 118] | 5.00 to 6.00 | ≥ 7.00 | 5.00 to 6.00 |
| COC(=O)Nc1cc(-c2nccc(-c3cc(NC(=O)NCCC4(C)CC4)cnc3C)n2)ccn1 [Example 135] | 5.00 to 6.00 | ≥ 7.00 |  |
| Cc1cc(F)c(NC(=O)NCCC2(C)CC2)cc1-c1cnnc(-c2ccnc(NC(=O)C3CC3)c2)c1 [Example 168] | 6.30 to 7.00 | ≥ 7.00 |  |
| COC(=O)Nc1cc(-c2ccnc(-c3cc(NC(=O)NCCC(C)(C)OC)c(F)cc3C)n2)ccn1 [Example 171] | 5.00 to 6.00 | ≥ 7.00 |  |
| CNC(=O)c1cc(-c2cnnc(-c3cc(NC(=O)NCCC(C)(C)F)c(F)cc3C)c2)ccn1 [Example 132] | 5.00 to 6.00 | 6.30 to 7.00 | 5.00 to 6.00 |
| COC(=O)Nc1cc(-c2cccc(-c3cc(NC(=O)NCCC4(OC)CC4)cnc3C)c2)ncn1 [Example 138] | 5.00 to 6.00 | ≥ 7.00 |  |
| COC1(CCNC(=O)Nc2cnc(C)c(-c3ccnc(-c4ccnc(NC(=O)C5CC5)c4)n3)c2)CC1 [Example 137] | 5.00 to 6.00 | ≥ 7.00 |  |
| Cc1cc(F)c(NC(=O)NCCC(C)(C)C)cc1-c1cc(-c2ccnc(NC(=O)C3CC3)c2)cnn1 [Example 131] | ≥ 7.00 | ≥ 7.00 | 5.00 to 6.00 |

| SMILES | pIC50 [1] | pIC50 [2] | pIC50 [3] |
| --- | --- | --- | --- |
| Cc1ccc(NC(=O)NCCC(C)(C)C)cc1-c1cc(N2CCOCC2)nc(N2CCOCC2)c1 [Example 4] | 6.00 to 6.30 | ≥ 7.00 | 5.00 to 6.00 |
| Cc1ncc(NC(=O)NCCC(C)(C)F)cc1-c1ccnc(-c2ccnc(NC(=O)C3CC3)c2)n1 [Example 136] | 5.00 to 6.00 | ≥ 7.00 |  |
| COC(=O)Nc1cc(-c2cc(-c3cc(NC(=O)NCCC(C)(C)OC)c(F)cc3F)ccn2)ccn1 [Example 163] | 5.00 to 6.00 | 6.30 to 7.00 |  |
| COC[C@@H]1CCN(C(=O)Nc2cnc(C)c(-c3cc(OCCO)nc(-c4ccnc(NC(=O)OC)c4)c3)c2)C1 [Example 160] | 5.00 to 6.00 | 6.30 to 7.00 |  |
| COC(=O)Nc1cc(-c2cnnc(-c3cc(NC(=O)NCCC(C)(C)OC)cnc3C)c2)ccn1 [Example 153] | 5.00 to 6.00 | 6.00 to 6.30 |  |
| Cc1cc(F)c(NC(=O)NCCC(C)(C)F)cc1-c1ccnc(-c2ccnc(NC(=O)C3CC3)c2)c1 [Example 159] | 5.00 to 6.00 | ≥ 7.00 |  |
| COC(=O)Nc1cc(-c2cc(-c3cc(NC(=O)NCCC4(C)CC4)cnc3C)cc(OCCO)n2)ccn1 [Example 151] | 5.00 to 6.00 | ≥ 7.00 |  |
| COC(=O)Nc1cc(-c2cc(-c3cc(NC(=O)NCCN4CCC4)c(F)cc3C)cc(OCCO)n2)ccn1 [Example 125] | 5.00 to 6.00 | < 6.00 |  |
| COC(=O)Nc1cc(-c2cc(-c3cc(NC(=O)NCCC4COC4)c(F)cc3C)cc(OCCO)n2)ccn1 [Example 155] | 5.00 to 6.00 | ≥ 7.00 |  |
| COC(=O)Nc1cc(-c2cc(-c3cc(NC(=O)N[C@H]4C[C@](C)(F)C4)cnc3C)cc(OCCO)n2)ccn1 [Example 157] | 5.00 to 6.00 | ≥ 7.00 |  |
| Cc1ncc(NC(=O)NCCN2CCC2)cc1-c1cc(OCCO)nc(-c2ccnc(NC(=O)C3CC3)c2)c1 [Example 172] | 5.00 to 6.00 | < 6.00 |  |
| CNC(=O)c1cc(-c2cc(-c3cc(NC(=O)NCCC4(C)CC4)c(F)cc3C)cc(OCCO)n2)ccn1 [Example 164] | ≥ 7.00 | ≥ 7.00 |  |
| Cc1ncc(NC(=O)NC2CC(C)(C)C2)cc1-c1cc(OCCO)nc(-c2ccnc(NC(=O)C3CC3)c2)c1 [Example 126] | 6.30 to 7.00 | ≥ 7.00 |  |
| COC(=O)Nc1cc(-c2cc(-c3cc(NC(=O)N4CCC(C)(C)CC4)cnc3C)cc(OCCO)n2)ccn1 [Example 166] | 5.00 to 6.00 | ≥ 7.00 |  |
| Cc1ncc(NC(=O)NCCC(C)(C)F)cc1-c1nccc(-c2ccnc(NC(=O)C3CC3)c2)n1 [Example 130] | 5.00 to 6.00 | ≥ 7.00 |  |
| Cc1cc(F)c(NC(=O)NC2CC(C)(C)C2)cc1-c1cc(OCCO)nc(-c2ccnc(NC(=O)C3CC3)c2)n1 [Example 167] | ≥ 7.00 | ≥ 7.00 |  |
| Cc1cc(F)c(NC(=O)NCCC2(C)CC2)cc1-c1ccnc(-c2ccnc(NC(=O)C3CC3)c2)c1 [Example 134] | 5.00 to 6.00 | ≥ 7.00 |  |
| COC(C)(C)CCNC(=O)Nc1cc(-c2ccnc(-c3ccnc(NC(=O)C4CC4)c3)c2)c(F)cc1F [Example 162] | 5.00 to 6.00 | ≥ 7.00 |  |
| COC[C@H]1CCN(C(=O)Nc2cnc(C)c(-c3cc(OCCO)nc(-c4ccnc(NC(=O)OC)c4)c3)c2)C1 [Example 152] | 5.00 to 6.00 | 6.30 to 7.00 |  |
| Cc1cc(F)c(NC(=O)NCCC(C)(C)F)cc1-c1ccnc(-c2ccnc(NC(=O)C3CC3)c2)n1 [Example 128] | 5.00 to 6.00 | ≥ 7.00 |  |
| COC(=O)Nc1cc(-c2cc(-c3cc(NC(=O)NC[C@H]4CCO4)c(F)cc3C)cc(OCCO)n2)ccn1 [Example 96] | 5.00 to 6.00 | 6.30 to 7.00 |  |
